Converted amounts (≈) assume the structure as drawn. “And” between values parts separate entries of the source, which are not always exact repeats. Identical values can stand only once.
Assays:
[1] = tested on: A. baumannii (ATCC 19606); assay: Antimicrobial MIC, A. baumannii; format: cell-based, Acinetobacter baumannii; settings: Acinetobacter baumannii, ATCC19606, A. baumannii (ATCC 19606); mean (n = 2)
E. coli (ATCC 25922) [2] = assay: Antimicrobial MIC, E. coli; format: cell-based, Escherichia coli; settings: mean (n = 2)
Summary of the method: (§1)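 In-house testing to a published method gave the antibacterial MICs, with antibiotics included for comparison; the Candida and Cryptococcus MICs were obtained through CO-ADD's standard screen.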

human red blood cells = assay: Hemolytic assay; format: cell-based; settings: concentration at 10% hemolytic activity on human red blood cells; mean (n = 2)
Description: Hemolysis assays were conducted using the protocols previously reported.

MRSA (ATCC 43300) [3] = assay: Antimicrobial MIC, MRSA; format: cell-based, methicillin-resistant Staphylococcus aureus; settings: Staphylococcus aureus, MRSA (ATCC 43300); mean (n = 2); read-out: MIC MRSA
[4] = tested on: C. neoformans (ATCC 208821); assay: Antifungal MIC, C. neoformans; format: cell-based, Cryptococcus neoformans; settings: Cryptococcus neoformans, ATCC208821, C. neoformans (ATCC 208821); mean (n = 2)
Summary of the method: as §1

[5] = tested on: S. aureus (ATCC 25,923 or ATCC 29213); assay: Antimicrobial MIC, S. aureus; format: cell-based, Staphylococcus aureus; settings: Staphylococcus aureus, mean (n = 3)
Summary of the method: as §1

[6] = tested on: K. pneumoniae (ATCC 700603); assay: Antimicrobial MIC, K. pneumoniae; format: cell-based; settings: Klebsiella pneumoniae, ATCC700603, mean (n = 2)
C. albicans (ATCC 90028) = assay: Antifungal MIC, C. albicans; format: cell-based; settings: Candida albicans, ATCC90028, mean (n = 2)
Summary of the method: as §1

Cytotoxicity assay = format: cell-based, human; settings: human, HEK293 human embryonic kidney cells, concentration at 50% cytotoxicity on HEK293 cells; mean (n = 2)
Description: (§2) Cytotoxicity assays were conducted using the protocols previously reported.

[7] = tested on: HEK293 human embryonic kidney cells; assay: Cytotoxicity assay; format: cell-based; settings: concentration at 50% cytotoxicity on HEK293 cells; mean (n = 2)
Description: as §2

[8] = tested on: P. aeruginosa (ATCC 27853); assay: Enhancement of doxycycline activity; format: cell-based, Pseudomonas aeruginosa; settings: for Concentration of test compound required to restore doxycycline activity / Dox/P.a: concentration required to restore doxycycline activity (combination MIC): P. aeruginosa (ATCC 27853); for Dox/P.a: concentration required to restore doxycycline activity (combination MIC): doxycycline fixed at 4.5 µM (2 µg/mL)
[9] = tested on: P. aeruginosa (PAO1 or ATCC 27853); assay: Antimicrobial MIC, P. aeruginosa; format: cell-based; settings: Pseudomonas aeruginosa; P. aeruginosa (PAO1 or ATCC 27853); mean (n = 3); read-out: MIC P. a
Summary of the method: as §1

E. coli (ATCC 25922) [10] = assay: Enhancement of erythromycin activity; format: cell-based, Escherichia coli; settings: for Eryth/E.c: concentration required to restore erythromycin activity (combination MIC): erythromycin fixed at 10.9 µM (8 µg/mL), E. coli (ATCC 25922); for Eryth/E.c fold change: ratio between intrinsic MIC of test compound and combination MIC, erythromycin 10.9 µM, E. coli
Description: Restoring enhancer concentrations were determined using previously reported protocols.

E. coli (ATCC 25922) [11] = tested on: E. coli (ATCC 25922); set-up: method as in PMID 36982955; settings: earlier work; cited from earlier work
MRSA (ATCC 43300) [12] = tested on: MRSA (ATCC 43300); set-up: method as in PMID 36982955; settings: earlier work; cited from earlier work
[13] = tested on: S. aureus (ATCC 25,923 or ATCC 29213); set-up: method as in PMID 36982955; settings: earlier work; cited from earlier work
[14] = tested on: P. aeruginosa (ATCC 27853); set-up: method as in PMID 36982955; settings: earlier work; cited from earlier work
E. coli = tested on: E. coli; set-up: method as in PMID 15225864; settings: novobiocin and erythromycin; weak effect; cited from earlier work
E. coli (ATCC 25922) [15] = assay: Real-time growth inhibition curves / MIC; format: cell-based; settings: Escherichia coli, ATCC25922, 18-hour mark of real-time growth curve
Description: (§3) To conduct a detailed analysis of the antibacterial activity and initial assessment of the mechanism of action, analogue 20f was selected due to its strong antibacterial properties, and because it was devoid of any observed cytotoxic or hemolytic effects. To evaluate the kinetics of antibacterial activity, real-time growth inhibition curves were measured for two Gram-positive bacteria (S. aureus (ATCC 25923), MRSA (CF-Marseille)) and the Gram-negative bacterium E. coli (ATCC 25922). […] These values corresponded to the inhibitory concentrations observed at the 18-hour mark in the real-time growth inhibition curve plots.
(§4) Solutions of compound 20f at concentrations of 2, 4, and 16 µg/mL were each tested in triplicate against S. aureus (ATCC 25923), MRSA (CF-Marseille), and E. coli (ATCC 25922) following previously reported protocols.

S. aureus (ATCC 25923) [16] = assay: Real-time growth inhibition curves / MIC; format: cell-based; settings: Staphylococcus aureus, ATCC25923, 18-hour mark of real-time growth curve
Description: as §3, §4

E. coli (ATCC 25922) [17] = assay: Minimum bactericidal concentration test; format: cell-based; settings: Escherichia coli, ATCC25922, same value as MIC
Description: as §3
(§5) MBC’s were determined following previously reported protocols.

S. aureus (ATCC 25923) [18] = assay: Minimum bactericidal concentration test; format: cell-based; settings: Staphylococcus aureus, ATCC25923, same value as MIC
Description: as §3, §5

MRSA (CF-Marseille) [19] = assay: Minimum bactericidal concentration test; format: cell-based, methicillin-resistant Staphylococcus aureus; settings: Staphylococcus aureus, same value as MIC
Description: as §3, §5

MRSA (CF-Marseille) [20] = assay: Real-time growth inhibition curves / MIC; format: cell-based, methicillin-resistant Staphylococcus aureus; settings: Staphylococcus aureus, 18-hour mark of real-time growth curve
Description: as §3, §4

[21] = Escherichia coli, ATCC25922, E. coli (ATCC 25922)

Structure (SMILES)	MIC [1]	MIC (E. coli (ATCC 25922) [2]; [21])	Hemolysis HC10 (human red blood cells)	MIC (MRSA (ATCC 43300) [3])	MIC [4]	MIC [5]	MIC [6]	MIC (C. albicans (ATCC 90028))	IC50 (Cytotoxicity assay)	Dox/P.a: concentration required to restore doxycycline activity (combination MIC) [8]	MIC [9]	Eryth/E.c: concentration required to restore erythromycin activity (combination MIC) (E. coli (ATCC 25922) [10])	Eryth/E.c fold change (E. coli (ATCC 25922) [10])	MIC Escherichia coli (E. coli (ATCC 25922) [11])	MIC MRSA (MRSA (ATCC 43300) [12])	MIC Staphylococcus aureus [13]	other results
O=C(NCCCNCCCCNCCCNC(=O)c1ccc2ccccc2c1)c1ccc2ccccc2c1.O=C(O)C(F)(F)F.O=C(O)C(F)(F)F [Compound 19a, N^1,N^4-Bis(3-(2-naphthamido)propyl)butane-1,4-diaminium 2,2,2-trifluoroacetate]	> 43.3 µM	271 µM	>43.3 µM	43.3 µM	21.7 µM	34 µM	> 43.3 µM	> 43.3 µM	26 µM	16.9 µM	677 µM	4.2 µM	64 fold				IC50 [7]: 26.4 µM; Concentration of test compound required to restore doxycycline activity ([8]; doxycycline concentration 2 µg/mL): 16.9 µM; Concentration of test compound required to restore doxycycline activity ([8]; doxycycline concentration 4 µg/mL): 8.5 µM; Concentration of test compound required to restore doxycycline activity ([8]; doxycycline concentration 6 µg/mL): 8.5 µM; Concentration of test compound required to restore doxycycline activity ([8]; doxycycline concentration 8 µg/mL): 4.2 µM; melting point: 132 to 135 °C
O=C(CC(c1ccccc1)(c1ccccc1)c1ccccc1)NCCCNCCCCCCCCNCCCNC(=O)CC(c1ccccc1)(c1ccccc1)c1ccccc1 [Compound 7]														7.6 µM (≈ 6.29 µg/mL)	≤ 0.24 µM	3.13 µM (≈ 2.59 µg/mL)	
O=C(CC(c1ccccc1)c1ccccc1)NCCCNCCCCCCCCNCCCNC(=O)CC(c1ccccc1)c1ccccc1 [Compound 6]														2.2 µM (≈ 1.48 µg/mL)	≤ 0.28 µM	3.13 µM (≈ 2.11 µg/mL)	MIC in combination, doxycycline vs. P. aeruginosa [14]: 12.5 µM; fold increase, doxycycline vs. P. aeruginosa [14]: 4 fold
NCCCNCCCCNCCCNC(=O)Cc1cccc2ccccc12 [Compound 22, naphthylacetylspermine]																	doses rendering E. coli sensitive to hydrophobic antibiotics (E. coli): 64 to 128 µg/mL
O=C(CCC(=O)Nc1ccc2ccccc2c1)NCCCNCCCCCCCCCCCCNCCCNC(=O)CCC(=O)Nc1ccc2ccccc2c1.O=C(O)C(F)(F)F.O=C(O)C(F)(F)F [Compound 20f, N^1,N^12-Bis(3-(4-(naphthalen-2-ylamino)-4-oxobutanamido)propyl)dodecane-1,12-diaminium 2,2,2-trifluoroacetate]	> 32 µM	6.3 to 12.5 µM	>32.2 µM	≤ 0.25 µM	≤ 0.25 µM	3.12 µM	> 32 µM	> 32 µM	> 32.2 µM	12.6 µM	> 100 µM	3.15 µM	2 fold				MIC (E. coli (ATCC 25922) [15]): 6.29 µM and 6.25 µg/mL; MIC (S. aureus (ATCC 25923) [16]): 3.15 µM and 3.13 µg/mL; MBC (E. coli (ATCC 25922) [17]): 6.29 µM and 6.25 µg/mL; MBC (S. aureus (ATCC 25923) [18]): 3.15 µM and 3.13 µg/mL; MIC (E. coli (ATCC 25922) [2]; E. coli (ATCC 25922)): 6.3 µM; MBC (MRSA (CF-Marseille) [19]): 3.13 µg/mL and 3.15 µM; Dox/P.a fold change ([8]; ratio between intrinsic MIC of test compound and combination MIC, doxycycline 4.5 µM, P. aeruginosa): > 8 fold; MIC (MRSA (CF-Marseille) [20]): 3.15 µM and 3.13 µg/mL

Source: article PMC10294832, “Investigation of Naphthyl–Polyamine Conjugates as Antimicrobials and Antibiotic Enhancers” (Antibiotics, 2023)
